Measured values taken from patent publication EP4733299A1, “SULFUR-CONTAINING FUSED RING COMPOUND, PHARMACEUTICAL COMPOSITION CONTAINING SAME, AND PREPARATION METHOD THEREFOR AND USE THEREOF” (Shenzhen Braegen Pharmaceutical Co., Ltd., priority 2023, dated 2024).
pKd: −log10 of the molar value.

Key:
α-Synuclein aggregates = target: T1, α-Synuclein aggregates (Homo sapiens, UniProt P37840); test: Fluorescence binding assay with protein aggregates (fluorescence spectrophotometer); conditions: compound 5 µM, 37°C, 5 min
T1 construct: purchased Proteos Inc RP-002
Method: (§1) First, the compound was a final concentration of 5 µM by dissolved in 50 mM Tris-buffer (pH 7.0) with 0.0025% (v/v) DMSO. Then, Aβ, α-Synuclein, and Tau aggregates were added, with their final concentrations being 0.02, 0.04, 0.08, 0.16, 0.32, 0.64, and 1.28 µM, respectively. Subsequently, the fluorescence measurements were detected using a fluorescence spectrophotometer (Horiba, Fluorolog3).
α-synuclein Aggregates (Proteos Inc; catalog No.: RP-002).
(§2) Tau aggregates: The cDNA sequence of Tau was inserted into a plasmid carrying a GST tag, which was then transfected into BL21 bacteria for protein expression. Bacterial pellets were resuspended in high-salt buffer (0.75 M NaCl, 50 mM Tris, pH 7.4, 1 mM EDTA), sonicated, and centrifuged at 70,000 x g for 30 min. The supernatants were applied onto a Glutathione sepharose beads column (GE Healthcare) and purified by GST tag. Thrombin was used to remove the GST tag. The protein was dialyzed with FPLC buffer (50 mM NaCl, 50 mM Tris- HCl pH 7.4). The protein was filtered through a 0.22 µm syringe filter. The concentration of Tau was adjusted to 3 mg/mL, 12.5 µM heparin was added, and the mixture was shaken at 37 °C and 300 rpm for 7 days to prepare Tau aggregates. • Incubation Concentrations: 0.02, 0.04, 0.08, 0.16, 0.32, 0.64, and 1.28 µM; • Incubation Temperature: 37°C; • Incubation Duration: 5 min; • Detection Wavelengths: [formula]
(§3) Statistical analysis was performed using GraphPad Prism® version 8.2.1.

Tau aggregates = Tau aggregates (Homo sapiens, UniProt P10636); test: as above; conditions: 5 min; for Ratio / α-Synuclein: Kd for Tau to Kd for α-Synuclein; for pKd: Tau aggregates, compound 5 µM, 37°C
Chain of Tau aggregates (P10636 with tags, fused parts or gaps): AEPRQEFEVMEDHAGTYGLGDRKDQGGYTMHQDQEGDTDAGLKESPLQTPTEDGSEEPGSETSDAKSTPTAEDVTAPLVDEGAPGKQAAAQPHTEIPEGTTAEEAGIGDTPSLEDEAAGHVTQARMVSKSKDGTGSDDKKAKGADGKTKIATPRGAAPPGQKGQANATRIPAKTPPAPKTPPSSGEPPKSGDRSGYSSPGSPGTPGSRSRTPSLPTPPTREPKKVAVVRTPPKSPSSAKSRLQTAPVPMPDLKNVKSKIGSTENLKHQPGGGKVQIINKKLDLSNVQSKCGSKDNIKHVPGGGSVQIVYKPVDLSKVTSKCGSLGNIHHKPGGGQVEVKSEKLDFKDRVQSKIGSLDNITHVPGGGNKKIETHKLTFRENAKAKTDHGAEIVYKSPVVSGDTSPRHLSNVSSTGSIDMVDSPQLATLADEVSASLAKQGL
Method: as §1, §2, §3

α-Syn aggregated neurons = test: Staining of primary cultured neurons infected with AAV α-Syn and treated with α-Syn PFFs, fluorescence microscopy; assay type: cell-based, Sprague-Dawley rats; conditions: compounds 0.1 mM; Fig. 1
Method: Primary cultured neurons were infected with adeno-associated virus (AAV) encoding a-Syn for 7 days and then treated with a-Syn PFFs. The candidate compounds were added to the primary neurons with the indicated aggregates and analyzed using fluorescence microscopy.
Primary hippocampal neurons were isolated from […] pregnant rats. The Sprague-Dawley rats were used at embryonic E18 days. The cortical tissue was isolated, dissociated, and incubated with 5 ml of D-Hanks containing 0.25% trypsin for 5 min at 37 °C in a humidified atmosphere of 5% CO2, centrifuged at 1000 x g for 5 min after addition of 4 ml of the neuronal plating medium containing DMEM/F12 with 10% fetal bovine serum. The 1 × 10^5 cells were plated in 6-well plates for further process. DIV7 neurons were infected with AAV α-Syn FL virus and at DIV12, the neurons were transduced with 100 ng/ml α-Syn PFF, α-Syn 1-140 were incubated with the cultured primary neurons in sterile PBS to a final concentration of 0.1 mg/ml. Sonicated PFFs, or an equivalent volume of the monomer as a control, were transferred into pre-warmed neuronal medium at a final concentration of 100 ng/ml. The samples were immune-stained with anti-p-α-Syn S129 (Abcam; Catalog No.: ab59264) (pseudo-colors were converted to red) to detect a-Syn aggregates and then stained with ThT (Sigma; Catalog No.: S96200) or compounds (0.1 mM).

AT8-positive NFTs = test: Ex vivo staining of human AD patient brain sections; assay type: binding; conditions: AD brains; Fig. 3
Method: (§4) The ex vivo screening was extended into human DLB, and AD patient samples. Neurodegenerative diseases of DLB belong to synucleino-pathies with well-defined Lewy bodies. Therefore, the positive compounds should show robust signals with LBs and LNs.
(§5) For immunohistochemical staining, deparaffinized and antigen-retrieved 20 µm-thick human brain sections were treated with 0.3% H2O2 at room temperature for 10 min. Subsequently, the sections were washed in PBS with 0.3% Triton X-100 3 times and then blocked with 1% BSA for 30 min, followed by overnight incubation with anti-Aβ/AT8/α-Syn pS129 antibody at 4 °C. The signal was developed using a Histostain-SP kit (Invitrogen, Catalog No.: 95-9943). After washing, the sections were covered with a glass cover using mounting solution.

Aβ plaques = test: as above; assay type: binding; conditions: AD brains; Fig. 3
Method: as §4, §5

[1] = In vivo PK profiling, plasma and brain exposure; set-up: species or system male CD-1 (ICR) mice; conditions: 5 mg/kg via tail vein injection; for Kp at 1 min: at 1 minute, read-out: brain/plasma ratio; for half-life: plasma
Method: To test whether these compounds are brain permeable in vivo, in vivo PK profiling was conducted to determain brain exposure.
An in vivo PK study was performed in male CD-1 (ICR) mice. Weighed a known amount of test compound and dissolved in vehicle (5% NMP + 15% Solutol + 80% PBS) to make a formulation (1 mg/mL). Then administered 5 mg/kg compound via tail vein injection into mice. The experiment included five groups (sampling time points), each group consisting of three male CD-1 (ICR) mice (body weight range: 29.1-30.6 g). At designated time points (0, 1, 5, 15, and 30 minutes post-injection), serial venous blood samples (approximately 30 µL each) and brain tissue samples were harvested from each animal. Blood samples were collected into Vacutainer IM tubes containing EDTA-K2 anticoagulant, inverted several times, and immediately placed on wet ice pending plasma centrifugation. For brain tissue samples, PBS (100 mM, pH 7.4) at […] the weight of the tissue (1:4, w/v) was added for homogenization. The concentrations of the test compound in plasma and brain tissue homogenates were measured by the LC/MS/MS analysis, with the specific operations as follows: Aliquots of 10 µL plasma sample or 50 µL brain homogenate sample was transferred to a 96-well plate, mixed with 200 µL protein precipitation solvent (methanol/acetonitrile, 1:1 v/v, containing 5 ng/mL Terfenadine). After protein precipitation, the supernatant was collected and diluted 3-fold with methanol/water (1:1, v/v, containing 0.1% FA). 1 µL of plasma samples or 3 µL of brain tissue homogenate samples was taken for LC/MS/MS analysis.

[2] = male, CD-1 (ICR), mouse, brain/plasma, intravenous
[3] = male, CD-1 (ICR), mouse, brain/plasma, intravenous, read-out: brain/plasma ratio, maximum
[4] = male, CD-1 (ICR), mouse, intravenous

Row | Compound | pKd (α-Synuclein aggregates) | Ratio / α-Synuclein (Tau aggregates) | pKd (Tau aggregates) | signals in α-Syn aggregated neurons (α-Syn aggregated neurons) | staining of AT8-positive NFTs (AT8-positive NFTs) | staining of Aβ plaques (Aβ plaques) | plasma half-life extension compared to F0502B [1] [fold] | Kp at 1 min [1, 2] | Kp at 15 min [1, 3] | half-life [1, 4] [min] | Kp at 30 min ([1]; male, CD-1 (ICR), mouse, brain/plasma, intravenous, at 30 minutes, read-out: brain/plasma ratio, maximum)
1 | Cc1cc2nc(/C=C/c3ccc(O)c(N)c3)sc2cc1N(C)CCOCCF [Compound C, (E)-2-amino-4-(2-(6-((2-(2-fluoroethoxy)ethyl)(methyl)amino)-5-methylbenzo[d]thiazol-2-yl)vinyl)phenol] | 6.50 | 2.00 | 6.20 | selectively yielded positive signals | did not stain | did not stain | 10 | 0.24 | 1.29 | 68.4 | 
2 | COc1c(/C=C/c2nc3cc(C)c(N(C)CCOCCF)cc3s2)ccc(O)c1Br [Compound E, (E)-2-bromo-4-(2-(6-((2-(2-fluoroethoxy)ethyl)(methyl)amino)-5-methylbenzo[d]thiazol-2-yl)vinyl)-3-methoxyphenol] | 7.81 | 2.34 | 7.44 | selectively yielded positive signals | did not stain | did not stain |  | 0.12 | 3.37 |  | 
3 | CCN(CCOCCF)c1cc2sc(/C=C/c3ccc(O)c(Br)c3)nc2cc1C [Compound R, (E)-2-bromo-4-(2-(6-(ethyl(2-(2-fluoroethoxy)ethyl)amino)-5-methylbenzo[d]thiazol-2-yl)vinyl)phenol] | 7.09 | 32.13 | 5.59 | selectively yielded positive signals | did not stain | did not stain | 4.7 | 0.05 |  | 32.4 | 2.55
